Experimental data published in article PMC7004140, “In vitro hepatotoxicity of Petasites hybridus extract (Ze 339) depends on the concentration, the cytochrome activity of the cell system, and the species used” (Phytotherapy Research, 2019).

Columns and labels:
Type in all cases: in vitro ADME
Conditions in all cases: petasins 20 μM, 60 min
[1] = target: T1, CYP3A4 (human) (Homo sapiens, UniProt P08684); assay: Metabolism by isolated human CYP3A4
T1 construct: purchased BD Gentest (Switzerland); host or cells: baculovirus expression system
T1 sequence (P08684 whole entry): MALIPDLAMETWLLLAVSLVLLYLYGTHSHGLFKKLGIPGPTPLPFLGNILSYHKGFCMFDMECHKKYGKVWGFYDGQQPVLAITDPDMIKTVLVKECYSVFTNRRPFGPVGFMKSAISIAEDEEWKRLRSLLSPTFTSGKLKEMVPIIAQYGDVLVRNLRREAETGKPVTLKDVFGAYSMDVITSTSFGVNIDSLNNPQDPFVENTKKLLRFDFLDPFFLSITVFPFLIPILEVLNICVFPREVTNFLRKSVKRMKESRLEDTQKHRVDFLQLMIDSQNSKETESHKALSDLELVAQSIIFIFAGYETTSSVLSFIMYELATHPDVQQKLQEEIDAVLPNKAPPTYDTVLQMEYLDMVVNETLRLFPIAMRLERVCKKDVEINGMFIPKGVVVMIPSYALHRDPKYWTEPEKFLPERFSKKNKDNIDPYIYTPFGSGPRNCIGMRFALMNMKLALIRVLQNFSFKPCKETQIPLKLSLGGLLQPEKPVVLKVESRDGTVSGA
From the text: (§1) The metabolism of petasin, isopetasin, and neopetasin was investigated using three different S9 fractions originating from three different species (isolated from rat, dog, and human liver homogenates containing cytochrome P450 isoforms) and isolated cytochromes of two different species (human and rat; rat analogues of the respective human cytochromes were used). For the expression of the different cytochromes, a baculovirus expression system was used according to supplier's manual. The S9 fractions or respectively single P450 cytochromes were used to mimic the liver metabolism by in vitro incubation.
The assay was carried out in triplicate in 1.5 ml glass vials with a final concentration of 20 μM of petasin, isopetasin, and neopetasin. The incubation was performed in a 37°C warm water bath. S9 fractions were thawed slowly on ice. Four different approaches were pursued by testing: (a) petasin, neopetasin, and isopetasin before (0 min) and after 60 min incubations with S9 fraction; (b) petasin, neopetasin, and isopetasin without S9 fraction after 60 min incubation; (c) vehicle as negative controls; and (d) cofactors of S9 fraction after 60‐min incubation.
A mixture of NADPH regeneration systems A (20‐fold) and B (100‐fold), phosphate buffer, and H2O was added, preincubated at 37°C, and shaken gently for 5 min. Afterwards, the recommended amount between 10 and 40 pmol/ml of enzyme or enzyme mixture was added according to manufacturer's instruction and incubated for further 60 min at 37°C and gently shaken. Afterwards, the reactions were stopped by addition of acetonitrile (400 μl). For the control sample, acetonitrile was added at 0 min incubation. The samples were centrifuged for 3 min at 10,000 × g. The supernatant was transferred to high‐performance liquid chromatography vials and analyzed by ultra‐performance liquid chromatography mass spectrometry (UPLC/MS). The UPLC analysis was performed with an UPLC Acquity H Class from Waters (Waters Corporation, Switzerland) including a quaternary high‐pressure gradient pump, an automatic sample injector, and a column thermostat. […]

[2] = target: T2, CYP3A2 (rat) (Rattus norvegicus, UniProt P05183); assay: Metabolism by isolated rat CYP3A2
T2 construct: purchased BD Gentest (Switzerland); host or cells: baculovirus expression system
T2 sequence (P05183 1-504): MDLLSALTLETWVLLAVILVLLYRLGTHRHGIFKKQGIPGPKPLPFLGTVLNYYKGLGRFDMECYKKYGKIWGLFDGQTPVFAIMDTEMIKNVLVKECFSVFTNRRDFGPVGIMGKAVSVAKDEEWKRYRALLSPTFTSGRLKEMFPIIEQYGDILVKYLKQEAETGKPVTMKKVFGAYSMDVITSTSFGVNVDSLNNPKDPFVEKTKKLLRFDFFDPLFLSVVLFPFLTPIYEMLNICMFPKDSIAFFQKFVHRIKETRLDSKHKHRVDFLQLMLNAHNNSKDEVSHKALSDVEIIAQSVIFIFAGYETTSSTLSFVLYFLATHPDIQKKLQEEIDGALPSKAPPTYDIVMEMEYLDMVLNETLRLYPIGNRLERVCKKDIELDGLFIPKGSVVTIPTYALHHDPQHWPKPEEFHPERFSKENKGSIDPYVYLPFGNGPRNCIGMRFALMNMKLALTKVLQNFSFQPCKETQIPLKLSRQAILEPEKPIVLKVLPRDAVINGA
From the text: as §1
(§2) The assay was carried out in triplicate in 1.5 ml glass vials with a final concentration of 20 μM of petasin, isopetasin, and neopetasin. The incubation was performed in a 37°C warm water bath. S9 fractions were thawed slowly on ice. […]
(§3) A mixture of NADPH regeneration systems A (20‐fold) and B (100‐fold), phosphate buffer, and H2O was added, preincubated at 37°C, and shaken gently for 5 min. […] The supernatant was transferred to high‐performance liquid chromatography vials and analyzed by ultra‐performance liquid chromatography mass spectrometry (UPLC/MS). […]

[3] = target: T3, CYP1A2 (rat) (Rattus norvegicus, UniProt P04799); assay: Metabolism by isolated rat CYP1A2
T3 construct: purchased BD Gentest (Switzerland); host or cells: baculovirus expression system
T3 sequence (P04799 1-513): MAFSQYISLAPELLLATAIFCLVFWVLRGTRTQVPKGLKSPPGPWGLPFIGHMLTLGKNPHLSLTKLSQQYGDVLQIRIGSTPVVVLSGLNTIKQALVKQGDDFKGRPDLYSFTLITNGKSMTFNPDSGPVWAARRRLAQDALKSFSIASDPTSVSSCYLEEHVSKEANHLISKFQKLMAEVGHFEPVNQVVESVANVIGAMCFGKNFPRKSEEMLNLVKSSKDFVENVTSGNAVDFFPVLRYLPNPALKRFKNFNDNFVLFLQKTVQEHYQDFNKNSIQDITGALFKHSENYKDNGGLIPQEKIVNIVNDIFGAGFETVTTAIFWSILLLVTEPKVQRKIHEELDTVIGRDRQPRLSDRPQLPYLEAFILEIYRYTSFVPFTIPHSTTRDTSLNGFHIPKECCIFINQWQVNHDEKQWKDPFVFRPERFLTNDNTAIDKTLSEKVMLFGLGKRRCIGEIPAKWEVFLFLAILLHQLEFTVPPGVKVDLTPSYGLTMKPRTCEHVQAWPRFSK
From the text: as §1, §2, §3

[4] = target: T4, CYP3A1 (rat) (Rattus norvegicus, UniProt P04800); assay: Metabolism by isolated rat CYP3A1
T4 construct: purchased BD Gentest (Switzerland); host or cells: baculovirus expression system
T4 sequence (P04800 1-504): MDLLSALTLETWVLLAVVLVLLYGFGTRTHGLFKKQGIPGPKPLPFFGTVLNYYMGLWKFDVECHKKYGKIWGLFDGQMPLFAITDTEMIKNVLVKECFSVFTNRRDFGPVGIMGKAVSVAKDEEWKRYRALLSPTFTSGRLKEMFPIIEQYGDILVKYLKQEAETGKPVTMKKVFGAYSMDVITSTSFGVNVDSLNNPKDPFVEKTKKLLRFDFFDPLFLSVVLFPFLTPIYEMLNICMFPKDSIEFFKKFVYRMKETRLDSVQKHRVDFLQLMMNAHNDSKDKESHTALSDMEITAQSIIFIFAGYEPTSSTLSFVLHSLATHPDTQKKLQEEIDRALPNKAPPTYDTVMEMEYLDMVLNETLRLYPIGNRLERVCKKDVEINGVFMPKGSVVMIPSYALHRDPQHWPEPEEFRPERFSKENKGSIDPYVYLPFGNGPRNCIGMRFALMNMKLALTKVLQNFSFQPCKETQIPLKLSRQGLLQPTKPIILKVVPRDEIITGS
From the text: as §1, §2, §3

[5] = target: T5, CYP2D6 (human) (Homo sapiens, UniProt P10635); assay: Metabolism by isolated human CYP2D6
T5 construct: purchased BD Gentest (Switzerland); host or cells: baculovirus expression system
T5 sequence (P10635 whole entry): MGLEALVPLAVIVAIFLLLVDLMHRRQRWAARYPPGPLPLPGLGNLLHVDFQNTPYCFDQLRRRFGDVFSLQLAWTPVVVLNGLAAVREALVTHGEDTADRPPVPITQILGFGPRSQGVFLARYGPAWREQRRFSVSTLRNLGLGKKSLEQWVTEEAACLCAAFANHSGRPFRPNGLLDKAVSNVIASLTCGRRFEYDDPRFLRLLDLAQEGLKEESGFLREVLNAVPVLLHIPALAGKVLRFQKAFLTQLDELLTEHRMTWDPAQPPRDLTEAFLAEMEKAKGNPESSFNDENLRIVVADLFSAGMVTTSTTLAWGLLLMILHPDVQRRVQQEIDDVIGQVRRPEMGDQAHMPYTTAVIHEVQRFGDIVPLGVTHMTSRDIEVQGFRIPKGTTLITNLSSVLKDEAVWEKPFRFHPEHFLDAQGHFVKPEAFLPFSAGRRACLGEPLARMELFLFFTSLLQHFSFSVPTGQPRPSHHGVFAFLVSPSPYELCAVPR
From the text: as §1, §2, §3

[6] = target: T6, CYP2C9 (human) (Homo sapiens, UniProt P11712); assay: Metabolism by isolated human CYP2C9
T6 construct: purchased BD Gentest (Switzerland); host or cells: baculovirus expression system
T6 sequence (P11712 whole entry): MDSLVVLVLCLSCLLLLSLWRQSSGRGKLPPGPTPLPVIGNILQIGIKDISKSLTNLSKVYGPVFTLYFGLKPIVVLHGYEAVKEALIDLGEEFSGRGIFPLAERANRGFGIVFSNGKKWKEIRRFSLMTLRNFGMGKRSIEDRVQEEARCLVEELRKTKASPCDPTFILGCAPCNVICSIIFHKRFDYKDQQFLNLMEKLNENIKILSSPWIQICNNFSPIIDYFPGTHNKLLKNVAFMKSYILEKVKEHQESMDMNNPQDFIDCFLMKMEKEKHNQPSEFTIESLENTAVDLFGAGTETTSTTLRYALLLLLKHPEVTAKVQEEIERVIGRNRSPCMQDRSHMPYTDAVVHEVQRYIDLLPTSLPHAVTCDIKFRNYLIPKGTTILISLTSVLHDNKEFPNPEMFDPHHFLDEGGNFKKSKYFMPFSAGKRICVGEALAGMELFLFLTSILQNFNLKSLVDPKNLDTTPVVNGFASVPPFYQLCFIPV
From the text: as §1, §2, §3

| extent of metabolism by CYP3A4 (human) [1] [%] | extent of metabolism by CYP3A2 (rat) [2] [%] | extent of metabolism by CYP1A2 (rat) [3] [%] | extent of metabolism by CYP3A1 (rat) [4] [%] | extent of metabolism by CYP2D6 (human) [5] [%] | extent of metabolism by CYP2C9 (human) [6] [%] | SMILES |
| --- | --- | --- | --- | --- | --- | --- |
| 87 | 73 | < 1 |  |  |  | C/C=C(/C)C(=O)O[C@@H]1CCC2=CC(=O)C(=C(C)C)C[C@]2(C)[C@H]1C [isopetasin] |
| 86 | 46 |  | 78 |  |  | C=C(C)[C@H]1C[C@@]2(C)C(=CC1=O)CC[C@@H](OC(=O)/C(C)=C\C)[C@@H]2C [neopetasin] |
| 34 |  | 43 | 37 | 80.2 | 51 | C=C(C)[C@@H]1C[C@@]2(C)C(=CC1=O)CC[C@@H](OC(=O)/C(C)=C\C)[C@@H]2C [petasin] |
